The structures appear in SMILES notation.

The target in the assay is 5-HT2A (Homo sapiens, UniProt P28223). Put plainly: PDSP radioligand binding.
Sequence of 5-HT2A (P28223 whole entry, species assumed): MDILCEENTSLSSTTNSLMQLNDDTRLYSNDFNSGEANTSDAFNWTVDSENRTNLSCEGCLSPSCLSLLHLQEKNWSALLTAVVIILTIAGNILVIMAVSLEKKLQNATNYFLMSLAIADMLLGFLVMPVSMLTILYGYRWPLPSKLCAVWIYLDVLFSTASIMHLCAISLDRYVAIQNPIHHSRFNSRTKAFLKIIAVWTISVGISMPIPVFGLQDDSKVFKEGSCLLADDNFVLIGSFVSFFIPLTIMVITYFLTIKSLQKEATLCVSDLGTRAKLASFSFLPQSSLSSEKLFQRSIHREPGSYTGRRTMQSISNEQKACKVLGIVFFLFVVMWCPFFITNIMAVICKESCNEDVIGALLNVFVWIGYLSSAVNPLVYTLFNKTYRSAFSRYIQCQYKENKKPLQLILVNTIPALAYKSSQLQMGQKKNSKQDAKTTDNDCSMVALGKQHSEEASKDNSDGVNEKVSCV

The molecule `COc1ccc(N=Nc2ccc3[nH]cc(CCN(C)C)c3c2)cc1` [2h] came in with a Ki of 225 nM. In other words, the sub-micromolar range.

Broadly, the Ki is the dissociation constant of the complex between target and ligand, obtained from inhibition or displacement.

The values above are taken from publication PMC9324199 (Angewandte Chemie (International Ed. in English), 2022).
